Measured values taken from patent publication US12502362B2, “Inhibitors of nucleotidyltransferase superfamily enzymes as antibiotics” (priority 2017, dated 2025).
Where two headings read alike, the source gives them in different places.

How the values were obtained:
Staphylococcus hominis = format: cell-based
Description: (§1) It was also tested whether compounds #63 and #285 can inhibit other coagulase-negative Staphylococcus (CNS) including S. epidermidis, S. hominis, etc. […].

[1] = system: Staphylococcus epidermidis; format: cell-based
Description: as §1

[2] = system: S. aureus ATCC strains and MRSA; format: cell-based, Staphylococcus aureus
[3] = system: Coagulase negative Staphylococcus; test: Antibiotic susceptibility of coagulase negative Staphylococcus strains; format: cell-based
[4] = Se1 (Staphylococcus epidermidis)
[5] = Se2 (Staphylococcus epidermidis)
[6] = Se3 (Staphylococcus epidermidis)
[7] = Se4 (Staphylococcus epidermidis)
[8] = Se5 (Staphylococcus epidermidis)
[9] = CNS1 (Coagulase negative Staphylococcus)
[10] = CNS2 (Coagulase negative Staphylococcus)

In the case of `CC(=O)NC[C@H]1CN(c2ccc(N3CCOCC3)c(F)c2)C(=O)O1` [LZD, linezolid], the Antibiotic susceptibility (Staphylococcus hominis; Sh1 (Staphylococcus hominis)) is reported as “S”, the Antibiotic susceptibility (Staphylococcus hominis; Sh2 (Staphylococcus hominis)) is reported as “S” and the Antibiotic susceptibility (Staphylococcus hominis; Sh3 (Staphylococcus hominis)) is reported as “S”. For the same molecule, the Antibiotic susceptibility [1, 4] was “S”, the Antibiotic susceptibility [1, 5] was “S” and the Antibiotic susceptibility [1, 6] was “S”. For the same molecule, the Antibiotic susceptibility [1, 7] was “S”, the Antibiotic susceptibility [1, 8] was “S” and the Antibiotic susceptibility ([2]; S. aureus ATCC 25923) was “S”. For the same molecule, the Antibiotic susceptibility ([2]; S. aureus ATCC 29213) was “S”, the Antibiotic susceptibility ([2]; S. aureus ATCC BAA 976) was “S” and the Antibiotic susceptibility ([2]; S. aureus ATCC BAA 977) was “S”. For the same molecule, the Antibiotic susceptibility ([2]; S. aureus ATCC BAA 1026) was “S”, the Antibiotic susceptibility ([2]; Sa1 (MRSA)) was “S” and the Antibiotic susceptibility ([2]; Sa2 (MRSA)) was “S”. For the same molecule, the Antibiotic susceptibility ([2]; Sa3 (MRSA)) was “S”, the Antibiotic susceptibility ([2]; Sa5 (MRSA)) was “S” and the Antibiotic susceptibility ([2]; Sa6 (MRSA)) was “S”. The Antibiotic susceptibility ([2]; Sa7 (MRSA)) was “S”, the Antibiotic susceptibility ([2]; Sa8 (MRSA)) was “S” and the Antibiotic susceptibility ([2]; Sa9 (MRSA)) was “S”. The Antibiotic susceptibility ([2]; Sa10 (MRSA)) was “S”, the Antibiotic susceptibility ([2]; Sa11 (MRSA)) was “S” and the Antibiotic susceptibility ([2]; Sa12 (MRSA)) was “S”. For the same molecule, the Antibiotic susceptibility ([2]; Sa14 (MRSA)) was “S”, the Antibiotic susceptibility ([2]; Sa15 (MRSA)) was “S” and the Antibiotic susceptibility ([2]; Sa16 (MRSA)) was “S”. For the same molecule, the Antibiotic susceptibility ([2]; Sa17 (MRSA)) was “S”, the Antibiotic susceptibility ([2]; Sa18 (MRSA)) was “S” and the Antibiotic susceptibility ([2]; Sa19 (MRSA)) was “S”. The Antibiotic susceptibility ([2]; Sa20 (MRSA)) was “S”, the Antibiotic susceptibility ([2]; Sa21 (MRSA)) was “S” and the Antibiotic susceptibility ([2]; Sa22 (MRSA)) was “S”. The Antibiotic susceptibility ([2]; Sa23 (MRSA)) was “S”, the Antibiotic susceptibility [3, 9] was “S” and the Antibiotic susceptibility [3, 10] was “S”.

For `COc1c(N2C[C@@H]3CCCN[C@@H]3C2)c(F)cc2c(=O)c(C(=O)O)cn(C3CC3)c12` [MXF, moxifloxacin], the Antibiotic susceptibility (Staphylococcus hominis; Sh1 (Staphylococcus hominis)) was “R”, the Antibiotic susceptibility (Staphylococcus hominis; Sh2 (Staphylococcus hominis)) was “S” and the Antibiotic susceptibility (Staphylococcus hominis; Sh3 (Staphylococcus hominis)) was “S”. For the same molecule, the Antibiotic susceptibility [1, 4] was “R”, the Antibiotic susceptibility [1, 5] was “S” and the Antibiotic susceptibility [1, 6] was “R”. The Antibiotic susceptibility [1, 7] was “R”, the Antibiotic susceptibility [1, 8] was “R” and the Antibiotic susceptibility ([2]; S. aureus ATCC 25923) was “S”. The Antibiotic susceptibility ([2]; S. aureus ATCC 29213) was “S”, the Antibiotic susceptibility ([2]; S. aureus ATCC BAA 976) was “S” and the Antibiotic susceptibility ([2]; S. aureus ATCC BAA 977) was “S”. The Antibiotic susceptibility ([2]; S. aureus ATCC BAA 1026) was “I”, the Antibiotic susceptibility ([2]; Sa1 (MRSA)) was “R” and the Antibiotic susceptibility ([2]; Sa2 (MRSA)) was “I”. The Antibiotic susceptibility ([2]; Sa3 (MRSA)) was “I”, the Antibiotic susceptibility ([2]; Sa5 (MRSA)) was “R” and the Antibiotic susceptibility ([2]; Sa6 (MRSA)) was “R”. The Antibiotic susceptibility ([2]; Sa7 (MRSA)) was “S”, the Antibiotic susceptibility ([2]; Sa8 (MRSA)) was “R” and the Antibiotic susceptibility ([2]; Sa9 (MRSA)) was “R”. The Antibiotic susceptibility ([2]; Sa10 (MRSA)) was “R”, the Antibiotic susceptibility ([2]; Sa11 (MRSA)) was “R” and the Antibiotic susceptibility ([2]; Sa12 (MRSA)) was “I”. For the same molecule, the Antibiotic susceptibility ([2]; Sa14 (MRSA)) was “I”, the Antibiotic susceptibility ([2]; Sa15 (MRSA)) was “R” and the Antibiotic susceptibility ([2]; Sa16 (MRSA)) was “I”. For the same molecule, the Antibiotic susceptibility ([2]; Sa17 (MRSA)) was “R”, the Antibiotic susceptibility ([2]; Sa18 (MRSA)) was “I” and the Antibiotic susceptibility ([2]; Sa19 (MRSA)) was “S”. The Antibiotic susceptibility ([2]; Sa20 (MRSA)) was “I”, the Antibiotic susceptibility ([2]; Sa21 (MRSA)) was “S” and the Antibiotic susceptibility ([2]; Sa22 (MRSA)) was “S”. The Antibiotic susceptibility ([2]; Sa23 (MRSA)) was “S”, the Antibiotic susceptibility [3, 9] was “S” and the Antibiotic susceptibility [3, 10] was “R”.

With `Cc1onc(-c2ccccc2)c1C(=O)N[C@@H]1C(=O)N2[C@@H]1SC(C)(C)[C@@H]2C(=O)O` [OXA, Oxacillin] the Antibiotic susceptibility (Staphylococcus hominis; Sh1 (Staphylococcus hominis)) was “R”, the Antibiotic susceptibility (Staphylococcus hominis; Sh2 (Staphylococcus hominis)) was “R” and the Antibiotic susceptibility (Staphylococcus hominis; Sh3 (Staphylococcus hominis)) was “R”. For the same molecule, the Antibiotic susceptibility [1, 4] was “R”, the Antibiotic susceptibility [1, 5] was “R” and the Antibiotic susceptibility [1, 6] was “R”. For the same molecule, the Antibiotic susceptibility [1, 7] was “R”, the Antibiotic susceptibility [1, 8] was “R” and the Antibiotic susceptibility ([2]; S. aureus ATCC 25923) was “S”. The Antibiotic susceptibility ([2]; S. aureus ATCC 29213) was “S”, the Antibiotic susceptibility ([2]; S. aureus ATCC BAA 976) was “R” and the Antibiotic susceptibility ([2]; S. aureus ATCC BAA 977) was “S”. The Antibiotic susceptibility ([2]; S. aureus ATCC BAA 1026) was “R”, the Antibiotic susceptibility ([2]; Sa1 (MRSA)) was “R” and the Antibiotic susceptibility ([2]; Sa2 (MRSA)) was “R”. The Antibiotic susceptibility ([2]; Sa3 (MRSA)) was “R”, the Antibiotic susceptibility ([2]; Sa5 (MRSA)) was “R” and the Antibiotic susceptibility ([2]; Sa6 (MRSA)) was “R”. The Antibiotic susceptibility ([2]; Sa7 (MRSA)) was “R”, the Antibiotic susceptibility ([2]; Sa8 (MRSA)) was “R” and the Antibiotic susceptibility ([2]; Sa9 (MRSA)) was “R”. For the same molecule, the Antibiotic susceptibility ([2]; Sa10 (MRSA)) was “R”, the Antibiotic susceptibility ([2]; Sa11 (MRSA)) was “R” and the Antibiotic susceptibility ([2]; Sa12 (MRSA)) was “R”. For the same molecule, the Antibiotic susceptibility ([2]; Sa14 (MRSA)) was “R”, the Antibiotic susceptibility ([2]; Sa15 (MRSA)) was “R” and the Antibiotic susceptibility ([2]; Sa16 (MRSA)) was “R”. For the same molecule, the Antibiotic susceptibility ([2]; Sa17 (MRSA)) was “R”, the Antibiotic susceptibility ([2]; Sa18 (MRSA)) was “R” and the Antibiotic susceptibility ([2]; Sa19 (MRSA)) was “R”. For the same molecule, the Antibiotic susceptibility ([2]; Sa20 (MRSA)) was “R”, the Antibiotic susceptibility ([2]; Sa21 (MRSA)) was “R” and the Antibiotic susceptibility ([2]; Sa22 (MRSA)) was “R”. For the same molecule, the Antibiotic susceptibility ([2]; Sa23 (MRSA)) was “R”, the Antibiotic susceptibility [3, 9] was “R” and the Antibiotic susceptibility [3, 10] was “R”.
